The record followed here is a melting point compilation (Tetko et al.).

On to `Cc1nc2ccccc2o1`, for which the melting point is 9.5 °C.

In turn, `Oc1c(F)c(F)cc(F)c1F` yielded a melting point of 38 °C. Consider `O=C(Nc1ccc([N+](=O)[O-])cc1)C(C(F)(F)F)(C(F)(F)F)C(F)(F)F`, for which the melting point fell in the range of 280 to 282 °C. `COc1cccc(C=C[N+](=O)[O-])c1` displayed a melting point of 91 to 93 °C. Next, `COc1ccc(OC)c(C=C[N+](=O)[O-])c1`: 114 to 119 °C; `BrCc1cc(CBr)c(CBr)cc1CBr`: 156 to 162 °C. On to `CCCCOCCOCCCC`, for which the melting point is -69.1 °C. `CCOC(=O)c1c(NC(=S)NCc2ccccc2)sc2c1CCCC2` gave a melting point of 125 to 127 °C.

Take `O=C=Nc1ccc(-c2cccs2)cc1`: the melting point was 65 to 66 °C.

`OC12CC3CC(CC(C3)C1)C2` had a melting point of 240 °C. Under `NC(=O)c1ccccc1OC(F)(F)F` stands 154 °C. `Cc1nc(-c2ccccc2)no1` registered a melting point of 35 °C. For the compound `Cc1nc(-c2cccc(Br)c2)no1`, the melting point was 81 to 83 °C. `Cc1cc(Br)ccc1N`: the melting point came out at 59.5 °C. Take `COC(=O)c1cc2c(s1)-c1cc(Cl)ccc1SC2`: the melting point is 158 to 160 °C. Next, `CCOC(=O)C(C)(C)N1CCN(c2ccc(Cl)cc2)CC1`: 56 °C; `Cc1c(C(=O)Cl)cnn1-c1ccc(F)cc1`: 90 to 92 °C; `Clc1ccc(Cc2c(N=Cc3ccccc3)n[nH]c2N=Cc2ccccc2)cc1`: 180 to 182 °C. Under `O=C(O)c1cn2ccsc2n1` stands 233 to 234 °C. Next, `c1ccc(P(CCP(c2ccccc2)c2ccccc2)c2ccccc2)cc1`: 141 °C; `Clc1ccc(-c2csc(N3N=C(c4cnccn4)CC3c3ccc4c(c3)OCO4)n2)cc1` (stereo not given): 187 °C; `N=C(N)NCC1COc2ccccc2O1` (stereo not given): 164 °C. On to `Cn1c(=O)c(C2=NNC(=O)C2=Cc2cccc([N+](=O)[O-])c2)c(O)c2ccccc21`, for which the melting point was 261 °C.

Take `CCCNC(=O)NNC(=O)OCC`: the melting point is 95 °C. `Nc1nn(-c2ccccc2)c2nc3ccccc3nc12` had a melting point of 210 °C.

`COC(=O)c1ccc(O)c(OC)c1` gave a melting point of 64 °C. Next, `O=CC(Cl)C=O`: 140 to 145 °C. Next, `O=C(O)CCCC(=O)c1cccs1`: 96 °C; `CSc1ccc(O)cc1C`: 56 °C; `NC(=S)c1ccccc1Cl`: 68 to 70 °C. As for `COc1ccc(-c2ccc(S(=O)(=O)N3CCCC3C(=O)O)cc2)cc1` (stereo not given), the melting point is 154 °C. In the case of `CC1(C)CCC(O)CC1`, the melting point was 28 to 30 °C. In turn, `O=C(Cl)c1sc(-c2ccccc2)nc1-c1ccccc1` yielded a melting point of 139 °C.

As to `Oc1ccc(C2CCCC2)cc1`, the melting point was 65 °C. Next, `CC(C)[C@]12C/C(=N\NC(N)=O)[C@H](C)[C@H]1C2`: 174 °C; `O=C(O)C12CC3CC(C1)CC(c1ccc([N+](=O)[O-])cc1)(C3)C2`: 197 to 200 °C. In turn, `CN1CCNC(=O)CCSCCSCCC1=O` returned a melting point of 115 to 116 °C.

Take `CCN(CCO)CCO`: the melting point is -50 °C. Consider `O=S(=O)(Cl)c1cccc2nonc12`, for which the melting point lay within 77 to 78 °C.

The compound `CN1C(=N)NC(=O)C1Cc1ccc(O)cc1` (stereo not given) yielded a melting point of 221 to 225 °C.

`O=C1/C(=C/c2ccccc2)SC(=S)N1CN1CCOCC1` had a melting point of 121 °C. As for `NCc1ccc(C(=O)O)cc1`, the melting point was determined as 300 °C.

As for `N#Cc1ccccc1C#N`, the melting point was found to be 140 °C.

With `O=C(O)c1ccccc1N/N=C1/C(=O)N(c2ccccc2)N=C1C(F)(F)F`, the melting point amounted to 139 °C.

Compound `Nc1c(F)c(F)c(-c2c(F)c(F)c(N)c(F)c2F)c(F)c1F` gave a melting point of 175 to 179 °C.

For `CC(C)(C(N)=O)n1nnc2ccccc21`, the melting point is 187 °C. Next, `C=C(C(=O)OC1CC(C)=CCCC(CO)=CC2OC(=O)C(=C)C21)C(O)CO` (stereo not given): 143 °C. In turn, `CCOc1ccc2nc(S(N)(=O)=O)sc2c1` displayed a melting point of 188 °C. In turn, `Nc1cc(F)c(Cl)cc1N` registered a melting point of 110 to 112 °C. For `CCSc1nnc(C(C)(C)C)c(=O)n1N`, the melting point was determined as 95 °C.

`COc1cc(C2Nn3c(nnc3-c3cccnc3)S2)ccc1O` (stereo not given) registered a melting point of 216 °C. `CCOC(=O)c1cc(C)nc(Cl)c1C#N` came in with a melting point of 58 to 60 °C. `CC(C)(C)C(O)C(Oc1ccc(-c2ccccc2)cc1)n1cncn1` (single isomer, unassigned; stereoisomer a): the melting point was 139 °C. Regarding `Cc1cc2c(cc1C)CCCC2`, the melting point worked out at 10 °C. Under `O=C1C=CC2=CC(=O)C=CC2=C1` stands 132 °C; under `COc1ccc(C(C#N)C(C)=O)c(Cl)c1` (stereo not given), 79 °C. Next, `O=C(Cl)c1ccc(Br)cc1F`: 25 °C; `CC(C)(C)OC(=O)NC(Cc1ccc(OCc2ccccc2)cc1)C(=O)O` (stereo not given): 109 °C; `O=C(Nc1ccccc1[N+](=O)[O-])C(C(F)(F)F)C(F)(F)F`: 156 °C.

Compound `OC1Cc2cccc3cccc1c23` (stereo not given) registered a melting point of 148 °C. Under `O[C@@H](c1ccccc1)[C@@H](O)c1ccccc1` stands 149 °C; under `O=C1OC(c2ccccc2)=NC1=Cc1ccc(-c2ccccc2)o1`, 142 to 143 °C; under `CN=C1CN(O)C(c2ccccc2)=c2cc(Cl)ccc2=N1`, 236 °C. `C=C(NC(C)=O)C(=O)CCC(N)=O` gave a melting point of 130 °C. `Cc1c(N=C=O)cnn1-c1ccccc1` gave a melting point of 56 to 60 °C. Next, `Nc1n[nH]c(N)c1Cc1ccc(F)cc1`: 159 to 161 °C; `COc1ccc(-c2nnc(CCl)o2)cc1`: 91 to 95 °C; `OCc1ccc(-n2cccn2)cc1`: 76 to 80 °C. Next, `NCc1cc(=O)[nH]o1`: 175 °C; `CC(=O)NC(N)=O`: 218 °C. In turn, `N#CCC(=O)N1CCCC1` displayed a melting point of 72.5 °C. Regarding `BrCCC(c1ccccc1)c1ccccc1`, the melting point is 41 °C.

For the compound `O=C(CCl)OCCOC(=O)CCl`, the melting point is 45.5 °C. Compound `c1cc2c(cc1N1N=N1)OCO2` gave a melting point of 129 °C. Next, `CSc1cc2c(c3c1CCOc1ccccc1-3)c(=O)n(-c1ccccc1)n2C`: 176 °C.

Compound `Cc1cc2c(C#N)c3sc4ccccc4n3c(=O)c2c(C)n1` displayed a melting point of 287 °C. Under `Brc1ccc2ccc3cccc4ccc1c2c34` stands 95 °C; under `CN(C)c1nncc(-c2cnnc(N(C)C)n2)n1`, 224 °C. With `O=C1OC(c2ccccc2)=N/C1=C/c1ccc(-c2ccc(Br)cc2)o1`, the melting point was found to be 180 °C. `Nc1cc(Cl)ccc1S` registered a melting point of 98 °C.

In the case of `O=S1(=O)CCN(CN2CCS(=O)(=O)NC2)CN1`, the melting point is 154 °C. Next, `CCCCOC(=O)C1=C(C)NC(=O)NC1c1ccco1` (stereo not given): 170 °C.

For `CCCCCCCCCCCCCCCCc1ccccc1`, the melting point was 25 to 29 °C. Next, `CN(C)c1ccccc1-c1ccccc1P(c1ccccc1)c1ccccc1`: 126 to 128 °C. Under `CNC(c1cccc(C(F)(F)F)c1)C(NC)c1cccc(C(F)(F)F)c1` (stereo not given) stands 113 to 115 °C; under `CCSc1nc(N)c(Br)c(O)n1`, 300 °C.

As to `O=C(O)c1ccc2c(c1)CCCC2`, the melting point amounted to 156 °C. In the case of `CC(C)n1cc(C(N)=S)c(=O)n(Cc2ccccc2)c1=O`, the melting point was in the range of 173 to 175 °C.

For `CC(C(C#N)C(N)=O)C(C#N)C(N)=O` (stereo not given), the melting point was in the range of 151 to 160 °C. Under `O=c1c(Cl)c(SCc2ccccc2)cnn1-c1ccccc1` stands 138 to 140 °C; under `CCOC(=O)c1sc(SC)c2c1CCCC2O` (stereo not given), 119 to 122 °C; under `CC(=O)c1cc(Br)c(O)c(Br)c1`, 174 to 183 °C. `O=C1OC(OC2OC(=O)C(Cl)=C2Cl)C(Cl)=C1Cl` (stereo not given): the melting point came out at 142 °C. Under `Oc1ccc(Nc2ccc3ccccc3c2)cc1` stands 140 °C; under `CC1CCC(C(C)C)C(OCC(=O)O)C1` (stereo not given), 54 °C; under `Clc1ccc(Cl)c(-c2cc(Cl)c(Cl)c(Cl)c2)c1`, 105 °C. Next, `CC1=C(C)CC(Cl)(Cl)C(=O)C(Cl)(Cl)C1`: 91 °C; `CC(=O)OC(OC(C)=O)c1ccc2c(c1[N+](=O)[O-])C(=O)c1c(Cl)c(Cl)c(Cl)c(Cl)c1C2=O`: 250 °C; `Cc1cc(C)c(N=C=O)c(C)c1`: 44.5 °C.

Compound `CC(CCC(=O)O)C1CCC2C3CCC4C(Br)C(=O)CCC4(C)C3CCC12C` (stereo not given) gave a melting point of 190 °C. `CCCCN(CC)c1c([N+](=O)[O-])cc(C(F)(F)F)cc1[N+](=O)[O-]` registered a melting point of 66 °C.

Regarding `COC(=O)c1ccc(S(=O)(=O)Cl)n1C`, the melting point lay in the range of 79 to 81 °C.

As to `CCC(=O)c1cccc([N+](=O)[O-])c1`, the melting point is 101 °C. The compound `O=C(O)Cc1ccccc1C(F)(F)F` displayed a melting point of 100 to 102 °C. Under `O=[N+]([O-])c1ccccc1-c1nc(-c2ccccc2)c(-c2ccccc2)[nH]1` stands 235 to 238 °C; under `CCCCCCCCCCCCCCCCCCCCC1CCCCC1`, 48.5 °C; under `O=C(O)c1cc(Br)c(C(=O)O)cc1Br`, 315 to 318 °C. Compound `O=C(Nc1ccccc1)c1cc(Cl)ccc1O` came in with a melting point of 211 °C. On to `CN(C)CCC(c1ccc(Br)cc1)c1ccccn1` (stereo not given), for which the melting point was < 25 °C.

In turn, `CC(C)(C)OC(=O)NC(CO)C(=O)O` (stereo not given) gave a melting point of 90.5 °C.
